Molecules are shown by their SMILES.

human metabotropic Glutamate 4 receptor (mGluR4), sequence (Q14833 33-912): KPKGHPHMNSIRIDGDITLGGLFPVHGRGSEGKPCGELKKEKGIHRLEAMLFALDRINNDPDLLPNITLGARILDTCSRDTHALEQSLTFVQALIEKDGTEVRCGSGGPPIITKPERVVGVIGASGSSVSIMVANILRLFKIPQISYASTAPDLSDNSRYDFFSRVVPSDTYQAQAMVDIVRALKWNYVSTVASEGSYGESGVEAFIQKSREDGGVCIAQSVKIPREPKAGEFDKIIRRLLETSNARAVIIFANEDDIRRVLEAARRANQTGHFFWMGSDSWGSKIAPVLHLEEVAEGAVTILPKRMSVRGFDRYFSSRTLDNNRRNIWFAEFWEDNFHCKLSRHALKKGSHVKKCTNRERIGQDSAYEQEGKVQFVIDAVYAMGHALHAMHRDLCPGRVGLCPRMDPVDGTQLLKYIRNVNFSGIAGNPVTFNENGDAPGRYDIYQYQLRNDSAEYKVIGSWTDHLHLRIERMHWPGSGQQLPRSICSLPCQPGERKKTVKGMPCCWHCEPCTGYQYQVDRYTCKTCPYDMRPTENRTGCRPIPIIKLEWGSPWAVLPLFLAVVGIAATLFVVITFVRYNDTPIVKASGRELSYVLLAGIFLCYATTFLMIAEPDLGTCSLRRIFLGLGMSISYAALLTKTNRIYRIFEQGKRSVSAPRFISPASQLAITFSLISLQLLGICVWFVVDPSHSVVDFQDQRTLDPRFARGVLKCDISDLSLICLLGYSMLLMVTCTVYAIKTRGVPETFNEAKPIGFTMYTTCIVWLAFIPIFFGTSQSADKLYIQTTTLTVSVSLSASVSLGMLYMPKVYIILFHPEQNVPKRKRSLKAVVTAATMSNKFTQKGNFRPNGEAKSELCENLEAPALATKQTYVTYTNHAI

The target in this assay is human metabotropic Glutamate 4 receptor (mGluR4) (Homo sapiens (Human), UniProt Q14833). As to the kind of experiment: Assay A: in vitro testing of mGluR4 potency (glutamate-induced cAMP lowering, HTRF cAMP). The assay is classed as cell-based. The following applies: HEK293 cells overexpressing human mGluR4; 10 uM L-glutamic acid, 1 uM forskolin; compounds of the present invention. Put shortly:
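HEK293 cells overexpressing human mGluR4 treated 30 min at room temperature with compound plus 10 uM L-glutamate, 1 uM forskolin, 0.5 mM IBMX, 0.1% BSA, 1% DMSO. cAMP read by HTRF (665/615 nm ratio), normalized to glutamate (100%) and no-glutamate (0%) controls as percent of control.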
In turn, `Cc1cnc(C(=O)N[C@H](c2nc3cc(Cl)ccc3n2C)[C@@H]2CCCO2)cn1` [Example 68, N-[(R)-(5-chloro-1-methyl-1H-1,3-benzodiazol-2-yl)[(2S)-oxolan-2-yl]methyl]-5-methylpyrazine-2-carboxamide] registered an IC50 of 19 nM.
As for `Cc1cnc(C(=O)N[C@H](c2nc3cc(F)c(Br)cc3n2C)C2CC2)cn1` [Example 110, N-[(S)-(6-bromo-5-fluoro-1-methyl-1H-1,3-benzodiazol-2-yl)(cyclopropyl)methyl]-5-methylpyrazine-2-carboxamide], 14 nM corresponded to half-maximal inhibition (IC50).
The result for `COC[C@@H](C)n1c([C@@H](NC(=O)c2cnc(C)cn2)[C@@H](C)OC)nc2cc(OC(F)(F)F)ccc21` [Example 129, N-[(1R,2R)-2-methoxy-1-{1-[(2R)-1-methoxypropan-2-yl]-5-(trifluoromethoxy)-1H-1,3-benzodiazol-2-yl}propyl]-5-methylpyrazine-2-carboxamide] reads 9 nM; that for `CCn1c(C(NC(=O)c2cnc(C)cn2)C2CCOC2)nc2cc(Cl)ccc21` (single isomer, unassigned) [Example 162, N-[(5-chloro-1-ethyl-1H-1,3-benzodiazol-2-yl)(oxolan-3-yl)methyl]-5-methylpyrazine-2-carboxamide], 30 nM; that for `Cc1cnc(C(=O)N[C@H](c2nc3cc(Cl)ccc3n2C)C(C)C)cn1` [Example 72, N-[(1S)-1-(5-chloro-1-methyl-1H-1,3-benzodiazol-2-yl)-2-methylpropyl]-5-methylpyrazine-2-carboxamide], 8 nM.
The result for `COCCn1c([C@@H](NC(=O)c2cnc(C)cn2)C2CC2)nc2cc(F)c(F)cc21` [Example 16, N-[(S)-cyclopropyl[5,6-difluoro-1-(2-methoxyethyl)-1H-1,3-benzodiazol-2-yl]methyl]-5-methylpyrazine-2-carboxamide] reads 5 nM; that for `CO[C@H](C)[C@H](NC(=O)c1cnc(C)cn1)c1nc2cc(OC(F)(F)F)ccc2n1C(C)C` [Example 123, N-[(1R,2R)-2-methoxy-1-[1-(propan-2-yl)-5-(trifluoromethoxy)-1H-1,3-benzodiazol-2-yl]propyl]-5-methylpyrazine-2-carboxamide], 3 nM.
Consider `COc1c(Cl)ccc2c1nc([C@@H](NC(=O)c1cnc(C)cn1)C1CC1)n2C` [Example 112, N-[(S)-(5-chloro-4-methoxy-1-methyl-1H-1,3-benzodiazol-2-yl)(cyclopropyl)methyl]-5-methylpyrazine-2-carboxamide], for which the 50% inhibitory concentration (IC50) was determined as 15 nM.
The result for `Cc1cnc(C(=O)N[C@H](c2nc3cc(C(F)(F)F)ccc3n2C)[C@H]2CCCO2)cn1` (single isomer, unassigned) [Example 56] reads 13 nM; that for `CCn1c([C@@H](NC(=O)c2cnc(C)cn2)C(C)(C)O)nc2cc(OC(F)(F)F)ccc21` [Example 98, N-[(1R)-1-[1-ethyl-5-(trifluoromethoxy)-1H-1,3-benzodiazol-2-yl]-2-hydroxy-2-methylpropyl]-5-methylpyrazine-2-carboxamide], 10 nM; that for `Cc1cnc(C(=O)N[C@H](c2nc3cc(C(F)(F)F)ccc3n2C)[C@H]2CCCO2)cn1` (single isomer, unassigned) [Example 75], 19 nM.
In the case of `Cc1cnc(C(=O)N[C@H](c2nc3cc(F)ccc3n2CC(F)F)[C@]2(O)CCCOC2)cn1` [Example 151, N-[(R)-[1-(2,2-difluoroethyl)-5-fluoro-1H-1,3-benzodiazol-2-yl][(3R)-3-hydroxyoxan-3-yl]methyl]-5-methylpyrazine-2-carboxamide], the IC50 worked out at 58 nM.
Under `Cc1cnc(C(=O)N[C@H](c2nc3cc(C(F)(F)F)ccc3n2C2CC2)C2CC2)cn1` [Example 116, N-[(S)-cyclopropyl[1-cyclopropyl-5-(trifluoromethyl)-1H-1,3-benzodiazol-2-yl]methyl]-5-methylpyrazine-2-carboxamide] stands 13 nM; under `Cc1cnc(C(=O)N[C@H](c2nc3cc(Cl)ccc3n2C)[C@@H]2CC2(F)F)cn1` [Example 76, N-[(S)-(5-chloro-1-methyl-1H-1,3-benzodiazol-2-yl)[(1S)-2,2-difluorocyclopropyl]methyl]-5-methylpyrazine-2-carboxamide], 12 nM.
In turn, `Cc1cnc(C(=O)N[C@H](c2nc3c(F)c(C)ccc3n2CC(F)F)C2CC2)cn1` [Example 9, N-[(S)-cyclopropyl[1-(2,2-difluoroethyl)-4-fluoro-5-methyl-1H-1,3-benzodiazol-2-yl]methyl]-5-methylpyrazine-2-carboxamide] gave an IC50 of 4 nM.

Usually IC50 stands for the concentration that gives 50% inhibition. High values mean weaker potency, low ones greater potency.

Values taken from patent US20240182453A1, “NOVEL SUBSTITUTED PYRAZINE-CARBOXAMIDE DERIVATIVES” (Boehringer Ingelheim International GmbH, priority 2022, published 2024).
